According to publication PMC3463587, “A Series of Beta-Carboline Derivatives Inhibit the Kinase Activity of PLKs” (PLoS ONE, 2012):

Experiments:
HepG2 cells = assay: MTT cell proliferation assay, HepG2; assay type: cell-based; conditions: Homo sapiens, 48 hr
Excerpt: BI2536 was purchased from Selleck (Selleck, USA).

[1] = tested on: four cancer cell lines (HepG2, MG63, HeLa and PC3); assay: Growth inhibition of four cancer cell lines; assay type: cell-based, Human
Excerpt: In order to find more efficient antitumor small molecules targeting PLK1, we synthesized additional 18 beta-carboline compounds and the structures of these compounds are shown in Figure 1. The growth inhibition of four cancer cell lines (HepG2, MG63, HeLa and PC3) by these compounds was examined. […] We selected DH281, DH285 and DH287 for further studies.

MRC5 cells = assay: FITC-Annexin V/PI apoptosis assay, MRC5; assay type: cell-based, Human; conditions: 48 hr
Excerpt: Staining with Annexin V–FITC and propidium iodide (PI) is commonly used to distinguish apoptotic, necrotic, and dead cells. PI is impermeant to live cells and apoptotic cells at early stages, but it stains dead cells and apoptotic cells at late stages through its binding to the nucleic acids. Apoptotic cells in early or late stages are stained positively for Annexin V-FITC that binds to phosphotidylserine. We used FACS analysis to determine the proportion of HeLa cells positive for Annexin V-FITC (FITC), PI, or both. The HeLa cells with PI^−/PI^+ FITC^+ were counted as apoptotic cells (Figure 5). […] However, 16.19% (3.96+12.23) of HeLa cells became FITC positive after treatment with 1.05 µM DH281 for 48 hr. The treatment with 5.25 µM DH281 induced apoptosis among 89.6% (89.51+0.09) of HeLa cells (Table 5). […] In contrast to HeLa cells, the induction of apoptosis by DH281 was much less efficient in non-cancer MRC5 cells (Table 5). Therefore, we conclude that the treatment with compounds DH281, DH285 and DH287 induces substantial apoptosis in HeLa cells, but non-cancer MRC5 cells are much less sensitive to the treatment. The distinct apoptotic responses of HeLa and MRC5 cells to beta-carboline compounds could explain the selectivity of PLK1 inhibitors toward cancer cells.
HeLa cells were either treated with 0, 0.21, 1.05 and 5.25 µM of DH281, DH285 and DH287 for 48 hr, or treated with 1.21 µM compounds for 24, 48 and 72 hr, while MRC5 cells were exposed to compounds at 0, 0.21, 1.05, and 5.25 µM for 48 hr. The cultured cells were harvested, washed three times with PBS, and resuspended in 500 µl binding buffer (10 mM Hepes/sodium hydroxide (pH7.4), 140 mM sodium chloride, and 2.5 mM CaCl2). Then 5 µl FITC-labeled Annexin V (Zhongshan JinQiao Biotechnology Ltd., Beijing) was added and the cells were incubated in the dark for 10 min. We added 5 µl of propidium iodide (PI) (10 µg/ml in binding buffer) to each sample before flow cytometry analysis.

[2] = tested on: Wee1 protein levels in HeLa cells; assay: Wee1 protein level (Western blotting); assay type: cell-based, human; conditions: 1.21 µM, 24 hr, compared to control cells
Procedure: As the inhibitory kinase for cyclin-dependent kinase (CDK), Wee1 is one of the substrates of PLK1 and this phosphorylation stimulates Wee1 degradation. We expect that the inhibition of PLK1 impairs the phosphorylation of Wee1, thereby resulting in elevated Wee1 protein levels. To test this possibility, we examined the protein levels of Wee1 in HeLa cells after treatment with 1.21 µM beta-carboline compounds for 24 hr. […] PLK1 also phosphorylates cyclin B1 and this phosphorylation promotes the nuclear localization of cyclin B1 [36]. After treatment with these beta-carboline compounds, a slight increase of cyclin B1 protein was observed (Figure 6B), and this increase could be a consequence of accumulation of cells in G2/M phase. However, the change of cyclin B1 levels is much less significant compared to the increase of Wee1 levels after treatment with these compounds.
HeLa cells were incubated with or without 1.21 µM DH281, DH285 and DH287 for 24 hr. The cells were washed twice with cold 1×PBS and lysed in RAPI buffer (Applygen technologies Inc.) for 30 min and centrifuged at 14,000 rpm for 20 min at 4°C. We separated 15 µl of total protein (1 µg/ µl) with 12% SDS-PAGE gels and transferred the proteins to PVDF membrane. […] The protein bands were detected using ECL System (Piscataway, New Jersey, USA). […]

Structure (SMILES) | IC50 (HepG2 cells) [µM] | antitumor activity (growth inhibition) [1] | PI+ FITC+ (late apoptotic cells) (MRC5 cells; MRC5, 0.21 µM) [%] | PI+ FITC− (dead cells) (MRC5 cells; MRC5, 0.21 µM) [%] | PI− FITC− (live cells) (MRC5 cells; MRC5, 0.21 µM) [%] | PI+ FITC+ (late apoptotic cells) (MRC5 cells; MRC5, 1.05 µM) [%] | PI+ FITC− (dead cells) (MRC5 cells; MRC5, 1.05 µM) [%] | PI− FITC+ (early apoptotic cells) (MRC5 cells; MRC5, 1.05 µM) [%] | PI− FITC− (live cells) (MRC5 cells; MRC5, 1.05 µM) [%] | PI+ FITC+ (late apoptotic cells) (MRC5 cells; MRC5, 5.25 µM) [%] | PI+ FITC− (dead cells) (MRC5 cells; MRC5, 5.25 µM) [%] | PI− FITC+ (early apoptotic cells) (MRC5 cells; MRC5, 5.25 µM) [%] | PI− FITC− (live cells) (MRC5 cells; MRC5, 5.25 µM) [%] | Wee1 protein level [2]
Cc1c2c(cc[n+]1Cc1ccccc1)c1ccc(OCc3ccc(F)cc3)cc1n2CCCc1ccccc1 [DH281] | 2.24 ± 0.04 | very strong growth inhibition | 5.07 | 1.63 | 92.4 | 0.59 | 0.01 | 13.3 | 86.1 | 7.76 | 10.5 | 18.5 | 63.2 | high levels of Wee1 protein
Cc1c2c(cc[n+]1Cc1ccccc1)c1ccc(OCc3ccccc3)cc1n2Cc1ccccc1 [DH287] | 10.7 ± 0.31 | very strong growth inhibition |  |  |  |  |  |  |  |  |  |  |  | high levels of Wee1 protein
